From patent US10668156B2, “Active-ingredient-containing solid dispersions based on diethylaminoethyl methacrylate copolymers” (BASF SE, priority 2012, dated 2020)

Key:
Format in all cases: physicochemical
[1] = Film method: loading capacity of active ingredient in polymer films, microscopic assessment after storage; settings: for Loading capacity, active ingredients in %, Films with Kollicoat ® Smartseal + 6 mol partially neutralized: 6 mol % of basic groups neutralized with adipic acid; for Loading capacity, active ingredients in %, Films with Kollicoat ® Smartseal + 6 mol partially neutralized / Loading capacity, active ingredients in %, Films with Kollicoat ® Smartseal + 8 mol partially neutralized / Loading capacity, active ingredients in %, Films with Eudragit ® EPO / Loading capacity, active ingredients in %, Films with Kollicoat ® Smartseal freeze-dried: no crystals in film, storage 7 days 23° C./54% relative humidity; for Loading capacity, active ingredients in %, Films with Kollicoat ® Smartseal + 8 mol partially neutralized: 8 mol % of basic groups neutralized with succinic acid; for Loading capacity, active ingredients in %, Films with Eudragit ® EPO / Loading capacity, active ingredients in %, Films with Kollicoat ® Smartseal freeze-dried: molecularly disperse dissolved active ingredient
Source text: The film method is a process in which a clear solution of the polymer and of the active ingredient is molded to give a thin film which solidifies as a result of the solvent evaporating. Clear solution means that no clouding is evident upon normal inspection. This method is suitable in particular as a screening method in order to determine the loading limits of the solid dispersions in a simple manner. For the screening process, the film can be produced by pouring the solution with the corresponding concentrations of polymer and active ingredient onto glass plates and drawing it out with the help of a blade to give the film. Usually, the films are drawn to layer thicknesses of from 50 to 200 μm. The resulting films are then dried by drawing off the solvent, and solidified as a result. In one or more embodiments, the solvent is removed in vacuo, for example at 1 hPa to 100 hPa. […] Additionally, the removal of the solvent can be effected by the action of temperature.
For the screening process, the films produced are then stored under controlled climatic conditions for defined periods of time—generally 14 days.
The films can then be evaluated by microscope at 40 times magnification. Clear films are a sign of amorphous systems. Cloudy films point to relatively large crystalline fractions.
To prepare the polymer/active ingredient mixture, the substances were weighed in the respective amounts into a 50 ml penicillin bottle.
All of the mixtures were stirred for 24 h on a magnetic stirrer until the constituents had dissolved. After visually assessing the solution (clear solution), the solvent was drawn out on a glass plate using a 120 μm blade. The resulting film was dried for 0.5 h at room temperature of 22+/−2° C. in a fume cupboard and then for 0.5 h in a vacuum drying cabinet at 50° C. and […]. […] Clear films (without active ingredient crystals) indicate molecularly disperse solutions and cloudy films (with active ingredient crystals) indicate crystalline systems.

[2] = Spray-drying: loading capacity assessed by DSC; settings: active ingredient in Kollicoat ® Smartseal
Procedure: (§1) To prepare the polymer/active ingredient mixture, the substances were weighed into an appropriate storage vessel. The corresponding amount of solvent was added and the mixture was stirred until the polymer and the active ingredient had completely dissolved. […] The solids fraction of the spraying solution was 20% by weight for all experiments. The spray-drying was carried out on a laboratory scale.
(§2) The liquid to be dried was atomized using a two-material nozzle. A heated gas (here nitrogen) flowing concurrently dries the distributed drops to give solid particles with particle diameters in the range 5-20 μm. In the entry area of the spray drier, the drying gas is supplied tangentially. The dry product particles are separated off in a cyclone.

[3] = Spray-drying: loading capacity assessed by XRD; settings: active ingredient in Kollicoat ® Smartseal
Procedure: as §1, §2
Loading capacity of Kollicoat® Smartseal with different active ingredients in the spray-drying. Spray-drying experiments carried out on the laboratory scale: • 1. Itraconazole: Kollicoat® Smartseal with 40+50% (w/w) itraconazole • 2. Fenofibrate: Kollicoat® Smartseal with 40+50% (w/w) fenofibrate • 3.

SMILES | Loading capacity, active ingredients in %, Films with Kollicoat ® Smartseal + 6 mol partially neutralized [1] [%] | Loading capacity, active ingredients in %, Films with Kollicoat ® Smartseal + 8 mol partially neutralized [1] [%] | Loading capacity, active ingredients in %, Films with Eudragit ® EPO [1] [%] | Loading capacity, active ingredients in %, Films with Kollicoat ® Smartseal freeze-dried [1] [%] | Loading film method ([1]; active ingredient in Kollicoat ® Smartseal) [%] | Loading spray-drying [DSC, %] [2] [%] | Loading spray-drying [XRD, %] [3] [%]
Clc1ccccc1C(c1ccccc1)(c1ccccc1)n1ccnc1 [Clotrimazole] | 35 | 35 | 20 | 35 | – | – | –
NC(=O)N1c2ccccc2C=Cc2ccccc21 [Carbamazepine] | 30 | 30 | <10 | 20 | – | – | –

Next, values leading:

Loading capacity, active ingredients in %, Films with Kollicoat ® Smartseal + 6 mol partially neutralized [1] [%] | Loading capacity, active ingredients in %, Films with Kollicoat ® Smartseal + 8 mol partially neutralized [1] [%] | Loading capacity, active ingredients in %, Films with Eudragit ® EPO [1] [%] | Loading capacity, active ingredients in %, Films with Kollicoat ® Smartseal freeze-dried [1] [%] | Loading film method ([1]; active ingredient in Kollicoat ® Smartseal) [%] | Loading spray-drying [DSC, %] [2] [%] | Loading spray-drying [XRD, %] [3] [%] | SMILES
30 | 30 | – | – | – | – | – | CC(C)Cc1ccc(C(C)C(=O)O)cc1 (stereo not drawn) [Ibuprofen 50, Ibuprofen]
– | – | 30 | – | 50 | 50 | 50 | COc1ccc2cc([C@H](C)C(=O)O)ccc2c1 [Naproxen]
50 | 50 | <10 | 50 | – | – | – | C#C[C@]1(O)CC[C@H]2[C@@H]3CCC4=Cc5oncc5C[C@]4(C)[C@H]3CC[C@@]21C [Danazol]
